Here are results for 2 molecules from patent publication US20120190868A1, “SUBSTITUTED BENZOCHALCOGENOACENE COMPOUND, THIN FILM COMPRISING THE COMPOUND, AND ORGANIC SEMICONDUCTOR DEVICE INCLUDING THE THIN FILM” (NATIONAL UNIVERSITY CORPORATION NAGOYA UNIVERSITY, priority 2009, published 2012).

The nature of this data set: Solubility of the compound in a solvent (preparation of solution composition). Format: physicochemical. Here is the method:
The solution composition containing the compound [5] in 0.5 wt % concentration was prepared by dissolving the compound [5] manufactured in Example 1 in tetrahydrofuran.
On the substrate obtained by a similar procedure to Example 8, a 0.5 wt % dichlorobenzene solution of the compound [14] heated at 100° C. was applied by the spin coating method and dried on a hot plate of 120° C. for 30 minutes to result in the formation of a thin film containing the compound and having a thickness of about 30 nm.

Regarding `CCCCCCc1ccc2c(c1)sc1c2sc2c3ccc(CCCCCC)cc3sc21` [[5]], the “concentration of solution composition prepared by dissolving the compound (solubility in a solvent)” value (tetrahydrofuran) stood at 0.5 wt %.

In the case of `CCCCCCCCCCCCc1ccc2c(c1)sc1c2sc2c3ccc(CCCCCCCCCCCC)cc3sc21` [[14]], the “concentration of solution of the compound (solubility in a solvent)” value (dichlorobenzene, heated at 100° C.) was 0.5 wt %.
